According to US12509462B2, “3-(phenylsulfonyl)-[1,2,3]triazolo[1,5A]quinazolin-5(4H)-one derivatives” (BIOVERSYS AG, priority 2018, dated 2025):
In brackets after ≈: the same amount, converted by molar mass. Like-named read-outs stand apart in the source and are kept apart here.

Experiments:
[1] = tested on: Staphylococcus aureus MRSA strain (USA300 isolate); assay: Hemolysis Assay II (exotoxin-mediated lysis of rabbit red blood cells by culture filtrate); assay type: cell-based; conditions: Erythrocyte; for minimal effective concentration / IC95: 18 h; for minimal effective concentration: absorbance <2× the average of the complete inhibition control, read-out: Hemolysis assay II MEC (minimal effective concentration); for IC95: read-out: Hemolysis assay II IC95; for IC50: 18 h culture in CA-MHB, rabbit red blood cells
MRSA (USA300 isolate) = assay: Hemolysis Assay I (exotoxin-mediated lysis of rabbit red blood cells by culture supernatant); assay type: cell-based, Staphylococcus aureus; conditions: Staphylococcus aureus, Erythrocyte, 30/10/3.3/1.1/0.37 μM compound, values at OD600 of 0.75
RNAIII = assay type: cell-based, Staphylococcus aureus; conditions: 10 μM compound, two hours, MRSA (USA300 isolate), normalized to rpoD
MRSA = assay: MIC by broth microdilution in CA-MHB (CLSI); conditions: Staphylococcus aureus, 18 h, read-out: MIC on MRSA
Description: Minimal inhibitory concentrations (MIC) were determined by broth microdilution method in cation-adjusted Mueller-Hinton (CA-MHB) broth according to the CLSI guideline. From an overnight culture plate, cells were resuspended in 0.9% (w/v) saline solution and bacterial inoculum was prepared in CA-MHB with 5×10^5 CFU/ml. Compounds were two-fold serially diluted in CA-MHB and 10 μL of this 10× concentrated samples were added into the 96-well plate. 90 μL of bacterial suspension was finally added to the compounds. Plates were covered and incubated without shaking at 35° C. for 18 hours. Every experiment contained an antibiotic as quality control. MIC was determined visually as the lowest concentration of a compound that prevents visible growth of the bacteria and the plates were scanned for documentation.

HepG2 = conditions: 48 h
psmα = assay type: cell-based, Staphylococcus aureus

SMILES | minimal effective concentration [1] [µg/mL] | IC95 [1] [mg/L] | IC50 [1] [mg/L] | IC50 (MRSA (USA300 isolate)) [µM] | Downregulation of RNAIII expression at 10 μM (RNAIII) | MIC (MRSA) [µM] | LD50 HepG2 (HepG2; human) | Downregulation of psmα expression at 10 μM (psmα) | LD50 HepG2 (HepG2; compounds 0.8-100 μM, SEAP readout)
Cc1ccc(S(=O)(=O)c2nnn3c2[nH]c(=O)c2ccc(Cl)cc23)c(C)c1 [Compound 3, 8-chloro-3-(2,4-dimethylphenyl)sulfonyl-4H-triazolo[1,5-a]quinazolin-5-one] | 4 | 3.45 (≈ 8.87 µM) | 1.65 (≈ 4.24 µM) | 5 | ++ (++ downregulation>100-fold (2 log10)) | ≥ 100 | >=100 μM | ++ (++ downregulation>100-fold (2 log10)) | 
Cc1ccc(S(=O)(=O)c2nnn3c2[nH]c(=O)c2ccccc23)c(Cl)c1 [Compound 35, 3-(2-chloro-4-methyl-phenyl)sulfonyl-4H-triazolo[1,5-a]quinazolin-5-one] | 4 | 3.7 (≈ 9.87 µM) | 1.25 (≈ 3.34 µM) | 1.5 |  | ≥ 100 | >=100 μM |  | 
Cc1ccc(S(=O)(=O)c2nnn3c2[nH]c(=O)c2ccc(O)cc23)c(C)c1 [Compound 36, 3-(2,4-dimethylphenyl)sulfonyl-8-hydroxy-4H-triazolo[1,5-a]quinazolin-5-one] | 4 | 4.5 (≈ 12.1 µM) | 1.7 (≈ 4.59 µM) | 2.8 |  | ≥ 100 | >=100 μM |  | 
Cc1ccc(S(=O)(=O)c2nnn3c2[nH]c(=O)c2ccccc23)c(Br)c1 [Compound 37, 3-(2-Bromo-4-methyl-phenyl)sulfonyl-4H-triazolo[1,5-a]quinazolin-5-one] | 4 | 3.65 (≈ 8.71 µM) | 1.25 (≈ 2.98 µM) | 1.5 |  | ≥ 100 | >=100 μM |  | 
Cc1ccc(S(=O)(=O)c2nnn3c2[nH]c(=O)c2ccc(Br)cc23)c(C)c1 [Compound 38, 8-bromo-3-(2,4-dimethylphenyl)sulfonyl-4H-triazolo[1,5-a]quinazolin-5-one] | 4 | 4.6 (≈ 10.6 µM) | 1.4 (≈ 3.23 µM) |  |  | 50 (≈ 21.7 µg/mL) | >=100 μM |  | 
COc1cccc2c1c(=O)[nH]c1c(S(=O)(=O)c3ccc(C)cc3C)nnn12 [Compound 39, 3-(2,4-dimethylphenyl)sulfonyl-6-methoxy-4H-triazolo[1,5-a]quinazolin-5-one] | 4 | 3.25 (≈ 8.45 µM) | 0.8 (≈ 2.08 µM) | 0.8 |  | ≥ 100 | >=100 μM |  | 
COCCCOc1ccc2c(=O)[nH]c3c(S(=O)(=O)c4ccc(C)cc4C)nnn3c2c1 [Compound 40, 3-(2,4-dimethylphenyl)sulfonyl-8-(3-methoxypropoxy)-4H-triazolo[1,5-a]quinazolin-5-one] | 3 | 4.4 (≈ 9.94 µM) | 1.05 (≈ 2.37 µM) |  |  | ≥ 100 | >=100 μM |  | 
Cc1ccc(S(=O)(=O)c2nnn3c2[nH]c(=O)c2ccc(OCCCC#N)cc23)c(C)c1 [Compound 41, 4-[[3-(2,4-dimethylphenyl)sulfonyl-5-oxo-4H-triazolo[1,5-a]quinazolin-8-yl]oxy]butanenitrile] | 2 | 2.5 (≈ 5.71 µM) | 0.65 (≈ 1.49 µM) |  |  | ≥ 100 | >=100 μM |  | 
Cc1ccc(S(=O)(=O)c2nnn3c2[nH]c(=O)c2ccc(I)cc23)c(C)c1 [Compound 42, 3-(2,4-dimethylphenyl)sulfonyl-8-iodo-4H-triazolo[1,5-a]quinazolin-5-one] | 6 | 10.1 (≈ 20.9 µM) | 2.05 (≈ 4.27 µM) |  |  | ≥ 100 | >=100 μM |  | 
COCCOc1ccc2c(=O)[nH]c3c(S(=O)(=O)c4ccc(C)cc4C)nnn3c2c1 [Compound 43, 3-(2,4-dimethylphenyl)sulfonyl-8-(2-methoxyethoxy)-4H-triazolo[1,5-a]quinazolin-5-one] | 2 | 3.5 (≈ 8.17 µM) | 0.8 (≈ 1.87 µM) |  |  | ≥ 100 | >=100 μM |  | 
Cc1cc(Br)c(S(=O)(=O)c2nnn3c2[nH]c(=O)c2ccccc23)cc1C [Compound 44, 3-(2-bromo-4,5-dimethyl-phenyl)sulfonyl-4H-triazolo[1,5-a]quinazolin-5-one] | 6 | 7.2 (≈ 16.6 µM) | 1.85 (≈ 4.27 µM) |  |  | ≥ 100 | >=100 μM |  | 
Cc1ccc(S(=O)(=O)c2nnn3c2[nH]c(=O)c2ccc(N4CCC4)cc23)c(C)c1 [Compound 45, 8-(azetidin-1-yl)-3-(2,4-dimethylphenyl)sulfonyl-4H-triazolo[1,5-a]quinazolin-5-one] | 6 | 8.85 (≈ 21.6 µM) | 1.7 (≈ 4.15 µM) |  |  | ≥ 100 |  |  | >=100 μM
Cc1ccc(S(=O)(=O)c2nnn3c2[nH]c(=O)c2cc(O)ccc23)c(C)c1 [Compound 46, 3-(2,4-dimethylphenyl)sulfonyl-7-hydroxy-4H-triazolo[1,5-a]quinazolin-5-one] | 1 | 1.4 (≈ 3.78 µM) | 0.4 (≈ 1.08 µM) |  |  | ≥ 100 | >=100 μM |  | 
COc1cccc2c(=O)[nH]c3c(S(=O)(=O)c4ccc(C)cc4C)nnn3c12 [Compound 47, 3-(2,4-dimethylphenyl)sulfonyl-9-methoxy-4H-triazolo[1,5-a]quinazolin-5-one] | 2 | 1.95 (≈ 5.07 µM) | 0.5 (≈ 1.3 µM) |  |  | ≥ 100 | >=100 μM |  | 
Cc1ccc(S(=O)(=O)c2nnn3c2[nH]c(=O)c2ccc(NCCN4CCOCC4)cc23)c(C)c1 [Compound 48, 3-(2,4-dimethylphenyl)sulfonyl-8-(2-morpholinoethylamino)-4H-triazolo[1,5-a]quinazolin-5-one] | 8 | 7 (≈ 14.5 µM) | 1.6 (≈ 3.32 µM) |  |  | 50 (≈ 24.1 µg/mL) | 50 µM |  | 
Cc1ccc(S(=O)(=O)c2nnn3c2[nH]c(=O)c2ccc(NC4CCOCC4)cc23)c(C)c1 [Compound 49, 3-(2,4-dimethylphenyl)sulfonyl-8-(tetrahydropyran-4-ylamino)-4H-triazolo[1,5-a]quinazolin-5-one] | 3 | 4.5 (≈ 9.92 µM) | 0.75 (≈ 1.65 µM) |  |  | ≥ 100 | 50 µM |  | 
Cc1ccc(S(=O)(=O)c2nnn3c2[nH]c(=O)c2cccc(O)c23)c(C)c1 [Compound 50, 3-(2,4-dimethylphenyl)sulfonyl-9-hydroxy-4H-triazolo[1,5-a]quinazolin-5-one] | 3 | 3.75 (≈ 10.1 µM) | 1.05 (≈ 2.83 µM) |  |  | ≥ 100 | >=100 μM |  | 
Cc1cc(C)c(S(=O)(=O)c2nnn3c2[nH]c(=O)c2ccccc23)c(Cl)c1 [Compound 51, 3-(2-chloro-4,6-dimethyl-phenyl)sulfonyl-4H-triazolo[1,5-a]quinazolin-5-one] | 6 | 5.25 (≈ 13.5 µM) | 1.9 (≈ 4.89 µM) |  |  | ≥ 100 | >=100 μM |  | 
Cc1cc(C)c(S(=O)(=O)c2nnn3c2[nH]c(=O)c2ccccc23)c(Br)c1 [Compound 52, 3-(2-bromo-4,6-dimethyl-phenyl)sulfonyl-4H-triazolo[1,5-a]quinazolin-5-one] | 6 | 6.1 (≈ 14.1 µM) | 1.95 (≈ 4.5 µM) |  |  | ≥ 100 | >=100 μM |  | 
Cc1ccc(S(=O)(=O)c2nnn3c2[nH]c(=O)c2ccc(OCCO)cc23)c(C)c1 [Compound 53, 3-(2,4-dimethylphenyl)sulfonyl-8-(2-hydroxyethoxy)-4H-triazolo[1,5-a]quinazolin-5-one] | 2 | 2.2 (≈ 5.31 µM) | 0.7 (≈ 1.69 µM) |  |  | ≥ 100 | >=100 μM |  | 
COC(=O)CCCOc1ccc2c(=O)[nH]c3c(S(=O)(=O)c4ccc(C)cc4C)nnn3c2c1 [Compound 55, methyl 4-[[3-(2,4-dimethylphenyl)sulfonyl-5-oxo-4H-triazolo[1,5-a]quinazolin-8-yl]oxy]butanoate] | 3 | 2.45 (≈ 5.21 µM) | 1 (≈ 2.13 µM) |  |  | ≥ 100 | >=100 μM |  | 
COCCOc1cc2c(cc1O)c(=O)[nH]c1c(S(=O)(=O)c3ccc(C)cc3C)nnn12 [Compound 58, 3-(2,4-dimethylphenyl)sulfonyl-7-hydroxy-8-(2-methoxyethoxy)-4H-triazolo[1,5-a]quinazolin-5-one] | 4 | 4.1 (≈ 9.22 µM) | 0.9 (≈ 2.02 µM) |  |  | ≥ 100 | >=100 μM |  | 
COCCOCCOCCOc1ccc2c(=O)[nH]c3c(S(=O)(=O)c4ccc(C)cc4C)nnn3c2c1 [Compound 59, 3-(2,4-dimethylphenyl)sulfonyl-8-[2-[2-(2-methoxyethoxy)ethoxy]ethoxy]-4H-triazolo[1,5-a]quinazolin-5-one] | 8 | 6.5 (≈ 12.6 µM) | 2.6 (≈ 5.03 µM) |  |  | ≥ 100 | >=100 μM |  | 
Cc1ccc(S(=O)(=O)c2nnn3c2[nH]c(=O)c2ccc(OCC4COC(C)(C)O4)cc23)c(C)c1 (stereo not shown) [Compound 60, 8-[(2,2-dimethyl-1,3-dioxolan-4-yl)methoxy]-3-(2,4-dimethylphenyl)sulfonyl-4H-triazolo[1,5-a]quinazolin-5-one] | 3 | 3.05 (≈ 6.29 µM) | 1 (≈ 2.06 µM) |  |  | ≥ 100 | >=100 μM |  | 
